Columns and labels:
rape = test: Test B pre/postemergence rape; assay type: in vivo, Brassica napus
Procedure, shortened: (§1)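 Herbicidal effect was estimated by eye on a ten-point control scale after plants spent twelve to sixteen days in a greenhouse following soil or foliar treatment. Foliar sprays targeted plants at one to four leaves; all doses were formulated in a non-phytotoxic solvent with surfactant.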

velvetleaf = test: Test B pre/postemergence velvetleaf; assay type: in vivo, Abutilon theophrasti
Procedure, shortened: as §1

morningglory = test: Test B pre/postemergence morningglory; assay type: in vivo, Ipomoea hederacea
Procedure, shortened: as §1

cocklebur = test: Test B pre/postemergence cocklebur; assay type: in vivo, Xanthium strumarium
Procedure, shortened: as §1

sugar beet = test: Test B pre/postemergence sugar beet; assay type: in vivo, Beta vulgaris
Procedure, shortened: as §1

smallflower flatsedge = test: Test B flood test smallflower flatsedge; assay type: in vivo, Cyperus difformis
Procedure, shortened: (§2)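 Each value is a visual injury score relative to controls, with 10 meaning complete control and 0 no effect. Evaluation took place twelve to sixteen days after the 2-leaf-stage plants were treated and kept in the greenhouse.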

giant foxtail = test: Test B pre/postemergence giant foxtail; assay type: in vivo, Setaria faberii
Procedure, shortened: as §1

crabgrass = test: Test B pre/postemergence crabgrass; assay type: in vivo, Digitaria sanguinalis
Procedure, shortened: as §1

corn = test: Test B pre/postemergence corn; assay type: in vivo, Zea mays
Procedure, shortened: as §1

soybean = test: Test B pre/postemergence soybean; assay type: in vivo, Glycine max
Procedure, shortened: as §1

purple nutsedge = test: Test B pre/postemergence purple nutsedge; assay type: in vivo, Cyperus rotundus
Procedure, shortened: as §1

wheat = test: Test B pre/postemergence wheat; assay type: in vivo, Triticum aestivum
Procedure, shortened: as §1

duck salad = test: Test B flood test duck salad; assay type: in vivo, Heteranthera limosa
Procedure, shortened: as §2

wild oat = test: Test B pre/postemergence wild oat; assay type: in vivo, Avena fatua
Procedure, shortened: as §1

blackgrass = test: Test B pre/postemergence blackgrass; assay type: in vivo, Alopecurus myosuroides
Procedure, shortened: as §1

surinam grass = test: Test B pre/postemergence surinam grass; assay type: in vivo, Brachiaria decumbens
Procedure, shortened: as §1

[1] = Preemergence, Rate 62 g/ha, scale of 0 to 10 where 0 is no effect and 10 is complete control
[2] = Preemergence, Rate 125 g/ha, 0 is no effect, 10 is complete control
[3] = Preemergence, Rate 250 g/ha, scale 0 to 10, 0 is no effect, 10 is complete control
[4] = Preemergence, Rate 500 g/ha, scale 0 to 10 (0 no effect, 10 complete control)
[5] = Rate 62 g/ha, Postemergence, scale of 0 to 10 where 0 is no effect and 10 is complete control
[6] = Rate 125 g/ha, Postemergence, scale 0 to 10
[7] = Rate 500 g/ha, Postemergence, scale 0 to 10
[8] = Rate 62 g/ha, headed Pre-emergence (flood test species), scale 0 to 10 (0 no effect, 10 complete control)
[9] = Rate 125 g/ha, Pre-emergence, flood test species, scale 0 to 10 where 0 is no effect and 10 is complete control
[10] = Rate 250 g/ha, Pre-emergence, flood-test species, scale 0 to 10, 0 is no effect, 10 is complete control

CCN(Cc1ccncc1)C(=O)n1oc(=O)n(C(C)C)c1=O [Compound 189]
Rape plant response rating (rape; [1]): 0
Rape plant response rating (0 to 10 scale) (rape; [2]): 0
Rape plant response rating (rape; [3]): 0
Rape plant response rating (rape; [4]): 0
Rape plant response rating (rape; [5]): 0
Rape plant response rating (rape; [6]): 0
Plant response rating (0 to 10; 0 is no effect, 10 is complete control), Rape (rape; Rate 250 g/ha, Postemergence): 0
Rape plant response rating (rape; [7]): 0
Velvetleaf plant response rating (velvetleaf; [1]): 0
Velvetleaf plant response rating (velvetleaf; [3]): 0
Velvetleaf plant response rating (velvetleaf; [4]): 0
Velvetleaf plant response rating (velvetleaf; [5]): 0
Velvetleaf plant response rating (velvetleaf; [6]): 0
Plant response rating (0 to 10; 0 is no effect, 10 is complete control), Velvetleaf (velvetleaf; Rate 250 g/ha, Postemergence): 0
Morningglory plant response rating (morningglory; [1]): 0
Morningglory plant response rating (0 to 10 scale) (morningglory; [2]): 0
Morningglory plant response rating (morningglory; [3]): 0
Morningglory plant response rating (morningglory; [4]): 0
Morningglory plant response rating (morningglory; [5]): 0
Morningglory plant response rating (morningglory; [6]): 0
Plant response rating (0 to 10; 0 is no effect, 10 is complete control), Morningglory (morningglory; Rate 250 g/ha, Postemergence): 0
Morningglory plant response rating (morningglory; [7]): 0
Cocklebur plant response rating (0 to 10 scale) (cocklebur; [2]): 0
Cocklebur plant response rating (cocklebur; [3]): 0
Cocklebur plant response rating (cocklebur; [4]): 0
Cocklebur plant response rating (cocklebur; [5]): 0
Cocklebur plant response rating (cocklebur; [6]): 0
Plant response rating (0 to 10; 0 is no effect, 10 is complete control), Cocklebur (cocklebur; Rate 250 g/ha, Postemergence): 0
Cocklebur plant response rating (cocklebur; [7]): 0
Sugarbeets plant response rating (sugar beet; [1]): 0
Sugarbeets plant response rating (0 to 10 scale) (sugar beet; [2]): 0
Sugarbeets plant response rating (sugar beet; [3]): 0
Sugarbeets plant response rating (sugar beet; [4]): 0
Sugarbeets plant response rating (sugar beet; [5]): 0
Sugarbeets plant response rating (sugar beet; [6]): 0
Plant response rating (0 to 10; 0 is no effect, 10 is complete control), Sugarbeets (sugar beet; Rate 250 g/ha, Postemergence): 0
Sugarbeets plant response rating (sugar beet; [7]): 0
S. Flatsedge plant response rating (smallflower flatsedge; [8]): 0
S. Flatsedge plant response rating (smallflower flatsedge; [9]): 0
S. Flatsedge plant response rating (smallflower flatsedge; [10]): 0
S. Flatsedge plant response rating (smallflower flatsedge; Rate 500 g/ha, Pre-emergence, flood test species, scale 0 to 10 (0 no effect, 10 complete control)): 0
Giant foxtail plant response rating (giant foxtail; [1]): 0
Giant foxtail plant response rating (0 to 10 scale) (giant foxtail; [2]): 0
Giant foxtail plant response rating (giant foxtail; [3]): 3
Giant foxtail plant response rating (giant foxtail; [4]): 6
Giant foxtail plant response rating (giant foxtail; [5]): 0
Giant foxtail plant response rating (giant foxtail; [6]): 0
Plant response rating (0 to 10; 0 is no effect, 10 is complete control), Giant foxtail (giant foxtail; Rate 250 g/ha, Postemergence): 0
Giant foxtail plant response rating (giant foxtail; [7]): 0
Crabgrass plant response rating (crabgrass; [1]): 0
Crabgrass plant response rating (0 to 10 scale) (crabgrass; [2]): 0
Crabgrass plant response rating (crabgrass; [3]): 0
Crabgrass plant response rating (crabgrass; [4]): 3
Crabgrass plant response rating (crabgrass; [5]): 0
Crabgrass plant response rating (crabgrass; [6]): 0
Plant response rating (0 to 10; 0 is no effect, 10 is complete control), Crabgrass (crabgrass; Rate 250 g/ha, Postemergence): 0
Crabgrass plant response rating (crabgrass; [7]): 0
Corn plant response rating (corn; [1]): 0
Corn plant response rating (0 to 10 scale) (corn; [2]): 0
Corn plant response rating (corn; [3]): 0
Corn plant response rating (corn; [4]): 0
Corn plant response rating (corn; [5]): 0
Corn plant response rating (corn; [6]): 0
Plant response rating (0 to 10; 0 is no effect, 10 is complete control), Corn (corn; Rate 250 g/ha, Postemergence): 0
Corn plant response rating (corn; [7]): 0
Soybean plant response rating (soybean; [1]): 0
Soybean plant response rating (0 to 10 scale) (soybean; [2]): 0
Soybean plant response rating (soybean; [3]): 0
Soybean plant response rating (soybean; [4]): 0
Soybean plant response rating (soybean; [5]): 0
Soybean plant response rating (soybean; [6]): 0
Plant response rating (0 to 10; 0 is no effect, 10 is complete control), Soybean (soybean; Rate 250 g/ha, Postemergence): 0
Soybean plant response rating (soybean; [7]): 0
Nutsedge plant response rating (purple nutsedge; [1]): 0
Nutsedge plant response rating (0 to 10 scale) (purple nutsedge; [2]): 0
Nutsedge plant response rating (purple nutsedge; [3]): 0
Nutsedge plant response rating (purple nutsedge; [4]): 0
Nutsedge plant response rating (purple nutsedge; [5]): 0
Nutsedge plant response rating (purple nutsedge; [6]): 0
Plant response rating (0 to 10; 0 is no effect, 10 is complete control), Nutsedge (purple nutsedge; Rate 250 g/ha, Postemergence): 0
Nutsedge plant response rating (purple nutsedge; [7]): 0
Wheat plant response rating (wheat; [1]): 0
Wheat plant response rating (wheat; [3]): 0
Wheat plant response rating (wheat; [4]): 2
Wheat plant response rating (wheat; [5]): 0
Wheat plant response rating (wheat; [6]): 0
Plant response rating (0 to 10; 0 is no effect, 10 is complete control), Wheat (wheat; Rate 250 g/ha, Postemergence): 0
Ducksalad plant response rating (duck salad; [8]): 0
Ducksalad plant response rating (duck salad; [9]): 0
Ducksalad plant response rating (duck salad; [10]): 0
Plant response rating, Ducksalad (duck salad; Rate 500 g/ha, headed Pre-emergence (flood test species), scale 0 to 10 (0 no effect, 10 complete control)): 0
Wild oats plant response rating (wild oat; [1]): 0
Wild oats plant response rating (wild oat; [3]): 3
Wild oats plant response rating (wild oat; [4]): 3
Wild oats plant response rating (wild oat; [5]): 0
Wild oats plant response rating (wild oat; [6]): 0
Plant response rating (0 to 10; 0 is no effect, 10 is complete control), Wild oats (wild oat; Rate 250 g/ha, Postemergence): 0
Blackgrass plant response rating (blackgrass; [1]): 1
Blackgrass plant response rating (0 to 10 scale) (blackgrass; [2]): 4
Blackgrass plant response rating (blackgrass; [3]): 4
Blackgrass plant response rating (blackgrass; [4]): 7
Blackgrass plant response rating (blackgrass; [5]): 0
Blackgrass plant response rating (blackgrass; [6]): 0
Plant response rating (0 to 10; 0 is no effect, 10 is complete control), Blackgrass (blackgrass; Rate 250 g/ha, Postemergence): 0
Blackgrass plant response rating (blackgrass; [7]): 0
B. signalgrass plant response rating (surinam grass; [1]): 3
B. signalgrass plant response rating (surinam grass; [3]): 3
B. signalgrass plant response rating (surinam grass; [4]): 6
B. signalgrass plant response rating (surinam grass; [5]): 0
B. signalgrass plant response rating (surinam grass; Rate 125 g/ha, Postemergence, scale 0 (no effect) to 10 (complete control)): 0
Plant response rating, B. signalgrass (surinam grass; Rate 250 g/ha, Postemergence, scale 0 to 10, 0 is no effect, 10 is complete control): 0
B. signalgrass plant response rating (surinam grass; Rate 500 g/ha, Postemergence, scale 0 to 10, 0 no effect, 10 complete control): 0

Reference: patent publication US6737383B1, “Herbicidal oxadiazolidines” (priority 1999, dated 2004)
